15 compounds from US8143270B2, “2-amino 1H-in-imidazo ring systems and methods” (3M Innovative Properties Company, priority 2004, dated 2012) can be followed below.

Counter-ions that a name gives are not always drawn.

Tested on in one data set: not given
Experiment: not given
Settings: not given
Consider `CC(C)(O)Cn1c(N)nc2c(N)nc3ccccc3c21` (as salt: hydrobromid) [Example 2, 1-(2,4-Diamino-1H-imidazo[4,5-c]quinolin-1-yl)-2-methylpropan-2-ol hydrobromide], for which the melting point (in general, the temperature, or range, at which the solid turns liquid) was more than 230 °C.

Regarding `CC(C)(O)Cn1c(N)nc2c(N)nc3c(c21)CCCC3` [Example 18, 1-(2,4-Diamino-6,7,8,9-tetrahydro-1H-imidazo[4,5-c]quinolin-1-yl)-2-methylpropan-2-ol], the melting point was more than 270 °C.

`C[C@H](c1ccccc1)n1c(N)nc2c(N)nc3ccccc3c21` [Example 44, 1-[(1R)-1-Phenylethyl]-1H-imidazo[4,5-c]quinoline-2,4-diamine] showed a melting point of 156 to 160 °C.

In the case of `COCCCNc1nc2c(N)nc3ccccc3c2n1CC(C)(C)O` [Example 9, 1-{4-Amino-2-[(3-methoxypropyl)amino]-1H-imidazo[4,5-c]quinolin-1-yl}-2-methylpropan-2-ol], the melting point lay in the range of 209 to 210 °C.

`C[C@@H](c1ccccc1)n1c(N)nc2c(N)nc3ccccc3c21` [Example 45, 1-[(1S)-1-Phenylethyl]-1H-imidazo[4,5-c]quinoline-2,4-diamine] registered a melting point of 135 to 140 °C.

`Nc1nc2ccccc2c2c1nc(N)n2Cc1ccccc1` [Example 4, 1-Benzyl-1H-imidazo[4,5-c]quinoline-2,4-diamine] had a melting point of 254 to 256 °C.

As to `CCNc1nc2c(N)nc3ccccc3c2n1CC(C)C` [Example 6, N^2-Ethyl-1-(2-methylpropyl)-1H-imidazo[4,5-c]quinoline-2,4-diamine], the melting point was in the range of 188 to 190 °C.

Consider `CC(C)(F)Cn1c(N)nc2c(N)nc3ccccc3c21` [Example 43, 1-(2-Fluoro-2-methylpropyl)-1H-imidazo[4,5-c]quinoline-2,4-diamine], for which the melting point is 251 °C.

Take `COC(=O)Nc1nc2c(N)nc3ccccc3c2n1CC(C)(C)O` [Example 181, Methyl [4-amino-1-(2-hydroxy-2-methylpropyl)-1H-imidazo[4,5-c]quinolin-2-yl]carbamate]: the melting point was 255 to 258 °C (dec.).

`CCNc1nc2c(N)nc(C)c(C)c2n1CC(C)C` [Example 16, N^2-Ethyl-6,7-dimethyl-1-(2-methylpropyl)-1H-imidazo[4,5-c]pyridine-2,4-diamine] returned a melting point of 168 to 170 °C.

On to `Nc1nc2ccccc2c2c1nc(N)n2CC1(O)CCC1` [Example 46, 1-[(2,4-Diamino-1H-imidazo[4,5-c]quinolin-1-yl)methyl]cyclobutanol], for which the melting point is 295 °C (dec.).

In turn, `CCNc1nc2c(N)nc3ccccc3c2n1CC(C)(C)O` [Example 7, 1-[4-Amino-2-(ethylamino)-1H-imidazo[4,5-c]quinolin-1-yl]-2-methylpropan-2-ol] gave a melting point of 233 to 235 °C.

With `CC(C)Cn1c(N)nc2c(N)nc3ccccc3c21` [Example 1, 1-(2-Methylpropyl)-1H-imidazo[4,5-c]quinoline-2,4-diamine], the melting point is more than 250 °C.

Regarding `CC(C)(Cn1c(N)nc2c(N)nc3ccccc3c21)NS(C)(=O)=O` [Example 3, N-[2-(2,4-Diamino-1H-imidazo[4,5-c]quinolin-1-yl)-1,1-dimethylethyl]methanesulfonamide], the melting point is more than 230 °C.

Consider `COCCNc1nc2c(N)nc3ccccc3c2n1CC(C)(C)O` [Example 8, 1-{4-Amino-2-[(2-methoxyethyl)amino]-1H-imidazo[4,5-c]quinolin-1-yl}-2-methylpropan-2-ol], for which the melting point was 176 to 178 °C.

In a further data set the test system is mouse macrophage cell line Raw 264.7. Briefly: TNF-α inhibition in mouse cells. In kind it is cell-based. Conditions: Raw 264.7 cells stimulated by lipopolysaccharide (LPS); single concentration 5 μM or dose response 0.03-10 μM; TNF-α by ELISA. Here is the method: The compounds of Formulas I, II, III, IV, V, VI, VII, and VIII are useful as immune response modifiers (IRMs) due to their ability to modulate cytokine biosynthesis (e.g., induce or inhibit the biosynthesis or production of one or more cytokines) and otherwise modulate the immune response when administered to animals. Compounds can be tested per the test procedures described in the Examples Section. Compounds can be tested for induction of cytokine biosynthesis by incubating human peripheral blood mononuclear cells (PBMC) in a culture with the compound(s) at a concentration range of 30 to 0.014 μM and analyzing for interferon (α) or tumor necrosis factor (α) in the culture supernatant. Compounds can be tested for inhibition of cytokine biosynthesis by incubating mouse macrophage cell line Raw 264.7 in a culture with the compound(s) at a single concentration of, for example, 5 μM and analyzing for tumor necrosis factor (α) in the culture supernatant. The ability to modulate cytokine biosynthesis, for example, induce the biosynthesis of one or more cytokines, makes the compounds useful in the treatment of a variety of conditions such as viral diseases and neoplastic diseases, that are responsive to such changes in the immune response. […]
(§1) Raw cells (ATCC) are harvested by gentle scraping and then counted. […]
The compounds are solubilized in dimethyl sulfoxide (DMSO). […] LPS (Lipopolysaccaride from Salmonella typhimurium, Sigma-Aldrich) is diluted with colorless RPMI to the EC70 concentration as measured by a dose response assay. […]
Following the incubation the supernatant is removed with a pipet. TNF-α concentration is determined by ELISA using a mouse TNF-α kit (from Biosource International, Camarillo, Calif.). […]
as §1
The compounds are solubilized in dimethyl sulfoxide (DMSO). […] LPS (Lipopolysaccaride from Salmonella typhimurium, Sigma-Aldrich) is diluted with colorless RPMI to the EC70 concentration as measured by dose response assay. […]
(In general: In an ELISA, binding on a coated surface is turned into a signal by an enzyme label.)
For the compound `COCCCNc1nc2c(N)nc3ccccc3c2n1CC(C)(C)O` [Example 9, 1-{4-Amino-2-[(3-methoxypropyl)amino]-1H-imidazo[4,5-c]quinolin-1-yl}-2-methylpropan-2-ol], the “inhibition of production of tumor necrosis factor α (TNF-α)” value (from here on “inhibition”) is listed as “inhibiting production of tumor necrosis factor α (TNF-α)”.

On to `CCNc1nc2c(N)nc3ccccc3c2n1CC(C)(C)O` [Example 7, 1-[4-Amino-2-(ethylamino)-1H-imidazo[4,5-c]quinolin-1-yl]-2-methylpropan-2-ol], for which the “inhibition” value was “inhibiting production of tumor necrosis factor α (TNF-α)”.

Turning to `COCCNc1nc2c(N)nc3ccccc3c2n1CC(C)(C)O` [Example 8, 1-{4-Amino-2-[(2-methoxyethyl)amino]-1H-imidazo[4,5-c]quinolin-1-yl}-2-methylpropan-2-ol], the “inhibition” value is listed as “inhibiting production of tumor necrosis factor α (TNF-α)”.
